Measured values from ChEMBL document CHEMBL1201862, “PubChem BioAssay data set” (2004).
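Each compound was tested at five concentrations against cells in 96-well plates for 48 hours. At the GI50, growth is halved.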 The source made the active and inactive calls. Rule as the data show it: active = GI50 up to about 1.1 µM and inactive = higher.

Legend:
Experiment in all cases: DTP human tumour cell line panel, 48 h
OVCAR-5 = test system: OVCAR-5
ACHN = test system: ACHN
UACC-62 = test system: UACC-62
SF-268 = test system: SF-268
U-251 = test system: U-251
UACC-257 = test system: UACC-257
MDA-MB-231 = test system: MDA-MB-231
NCI/ADR-RES = test system: NCI/ADR-RES
K562 = test system: K562
CCRF-CEM = test system: CCRF-CEM
A549 = test system: A549
DU-145 = test system: DU-145
MCF7 = test system: MCF7
RPMI-8226 = test system: RPMI-8226
SF-295 = test system: SF-295
Malme-3M = test system: Malme-3M
EKVX = test system: EKVX
OVCAR-3 = test system: OVCAR-3
NCI-H226 = test system: NCI-H226
UO-31 = test system: UO-31
MDA-N = test system: MDA-N
SK-MEL-2 = test system: SK-MEL-2
786-0 = test system: 786-0
SNB-19 = test system: SNB-19
SK-MEL-5 = test system: SK-MEL-5
Hs-578T = test system: Hs-578T
TK-10 = test system: TK-10
SR = test system: SR
OVCAR-4 = test system: OVCAR-4
PC-3 = test system: PC-3
HOP-62 = test system: HOP-62
MDA-MB-435 = test system: MDA-MB-435
SF-539 = test system: SF-539
LOX IMVI = test system: LOX IMVI
COLO 205 = test system: COLO 205
NCI-H23 = test system: NCI-H23
A498 = test system: A498
MOLT-4 = test system: MOLT-4
HCT-116 = test system: HCT-116
SN12C = test system: SN12C
SNB-75 = test system: SNB-75
SW-620 = test system: SW-620
KM12 = test system: KM12
M14 = test system: M14
SK-OV-3 = test system: SK-OV-3
IGROV-1 = test system: IGROV-1
HCT-15 = test system: HCT-15
OVCAR-8 = test system: OVCAR-8
HT-29 = test system: HT-29
SK-MEL-28 = test system: SK-MEL-28
T47D = test system: T47D
CAKI-1 = test system: CAKI-1
NCI-H522 = test system: NCI-H522
HL-60 = test system: HL-60
HCC 2998 = test system: HCC 2998
NCI-H460 = test system: NCI-H460

## COc1cc2oc(=O)cc(C)c2c(OC)c1O
OVCAR-5
  GI50: > 100 µM (inactive)
ACHN
  GI50: > 100 µM (inactive)
UACC-62
  GI50: > 100 µM (inactive)
SF-268
  GI50: > 100 µM (inactive)
U-251
  GI50: > 100 µM (inactive)
UACC-257
  GI50: > 100 µM (inactive)
MDA-MB-231
  GI50: > 100 µM (inactive)
NCI/ADR-RES
  GI50: > 100 µM (inactive)
K562
  GI50: > 100 µM (inactive)
CCRF-CEM
  GI50: > 100 µM (inactive)
A549
  GI50: > 100 µM (inactive)
DU-145
  GI50: > 100 µM (inactive)
MCF7
  GI50: > 100 µM (inactive)
RPMI-8226
  GI50: > 100 µM (inactive)
SF-295
  GI50: > 100 µM (inactive)
Malme-3M
  GI50: > 100 µM (inactive)
EKVX
  GI50: > 100 µM (inactive)
OVCAR-3
  GI50: > 100 µM (inactive)
NCI-H226
  GI50: > 100 µM (inactive)
UO-31
  GI50: > 100 µM (inactive)
MDA-N
  GI50: > 100 µM (inactive)
SK-MEL-2
  GI50: > 100 µM (inactive)
786-0
  GI50: > 100 µM (inactive)
SNB-19
  GI50: > 100 µM (inactive)
SK-MEL-5
  GI50: > 100 µM (inactive)
Hs-578T
  GI50: 25.2 µM (inactive)
TK-10
  GI50: > 100 µM (inactive)
SR
  GI50: > 100 µM (inactive)
OVCAR-4
  GI50: > 100 µM (inactive)
PC-3
  GI50: > 100 µM (inactive)
HOP-62
  GI50: > 100 µM (inactive)
MDA-MB-435
  GI50: > 100 µM (inactive)
SF-539
  GI50: > 100 µM (inactive)
LOX IMVI
  GI50: > 100 µM (inactive)
COLO 205
  GI50: > 100 µM (inactive)
NCI-H23
  GI50: > 100 µM (inactive)
A498
  GI50: 26.1 µM (inactive)
MOLT-4
  GI50: > 100 µM (inactive)
HCT-116
  GI50: > 100 µM (inactive)
SN12C
  GI50: > 100 µM (inactive)
SNB-75
  GI50: > 100 µM (inactive)
SW-620
  GI50: > 100 µM (inactive)
KM12
  GI50: > 100 µM (inactive)
M14
  GI50: > 100 µM (inactive)
SK-OV-3
  GI50: > 100 µM (inactive)
IGROV-1
  GI50: > 100 µM (inactive)
HCT-15
  GI50: > 100 µM
OVCAR-8
  GI50: > 100 µM (inactive)
HT-29
  GI50: > 100 µM (inactive)
SK-MEL-28
  GI50: > 100 µM (inactive)

## Clc1ccc(COC(Cn2ccnc2)c2ccc(Cl)cc2Cl)c(Cl)c1 (stereo not given) [MICONAZOLE NITRATE]
OVCAR-5
  GI50: 12.9 µM (inactive)
ACHN
  GI50: 12.2 µM (inactive)
UACC-62
  GI50: 10.2 µM (inactive)
SF-268
  GI50: 10.3 µM (inactive)
U-251
  GI50: 11 µM (inactive)
UACC-257
  GI50: 11 µM (inactive)
MDA-MB-231
  GI50: 11.9 µM (inactive)
NCI/ADR-RES
  GI50: 4 µM (inactive)
K562
  GI50: 3.75 µM (inactive)
CCRF-CEM
  GI50: 5.82 µM (inactive)
A549
  GI50: 10.9 µM (inactive)
DU-145
  GI50: 13 µM (inactive)
MCF7
  GI50: 14.7 µM (inactive)
SF-295
  GI50: 10.8 µM (inactive)
Malme-3M
  GI50: 12.5 µM (inactive)
T47D
  GI50: 4.57 µM (inactive)
CAKI-1
  GI50: 10.5 µM (inactive)
EKVX
  GI50: 10.5 µM (inactive)
OVCAR-3
  GI50: 9.86 µM (inactive)
UO-31
  GI50: 2.94 µM (inactive)
MDA-N
  GI50: 3.89 µM (inactive)
SK-MEL-2
  GI50: 13.1 µM (inactive)
786-0
  GI50: 10.9 µM (inactive)
SNB-19
  GI50: 15.9 µM (inactive)
NCI-H522
  GI50: 8.2 µM (inactive)
OVCAR-4
  GI50: 11.9 µM (inactive)
PC-3
  GI50: 5.7 µM (inactive)
HOP-62
  GI50: 13.2 µM (inactive)
MDA-MB-435
  GI50: 3.37 µM (inactive)
HL-60
  GI50: 3.48 µM (inactive)
HCC 2998
  GI50: 12.8 µM (inactive)
SF-539
  GI50: 14.6 µM (inactive)
LOX IMVI
  GI50: 9.18 µM (inactive)
NCI-H23
  GI50: 8.15 µM (inactive)
MOLT-4
  GI50: 3.36 µM (inactive)
HCT-116
  GI50: 5.3 µM (inactive)
SN12C
  GI50: 7.96 µM (inactive)
SW-620
  GI50: 12.8 µM (inactive)
NCI-H460
  GI50: 12.6 µM (inactive)
KM12
  GI50: 13.3 µM (inactive)
M14
  GI50: 10.6 µM (inactive)
SK-OV-3
  GI50: 14.3 µM (inactive)
HCT-15
  GI50: 10.2 µM
OVCAR-8
  GI50: 8.39 µM (inactive)
SK-MEL-28
  GI50: 12.7 µM (inactive)
